Source: patent publication US20100173013A1, “TREATMENT OF NEOPLASTIC DISORDERS USING COMBINATION THERAPIES” (priority 2009, published 2010)
pIC50: −log10 of the molar value. Several values for one entry are separate records, joined by “and”; a condition that tells them apart may be missing. Identical values can stand only once. Counter-ions that a name gives are not always drawn. Like-named read-outs stand apart in the source and are kept apart here. One block for each compound: values may come before it.

Legend:
[1] = system: MDA-MB-468 breast cancer cells; experiment: Alamar Blue cell inhibition assay, MDA-MB-468; format: cell-based; details: 5 day assay, read-out: IC50 (single agent)
[2] = system: SUM-149PT inflammatory breast carcinoma cells; experiment: Alamar Blue cell inhibition assay, SUM-149PT; format: cell-based; details: for pIC50: read-out: IC50 (single agent)
[3] = system: MIA PaCa-2 pancreatic cancer cells; experiment: Alamar Blue cell inhibition assay, MIA PaCa-2
A375 melanoma cells = experiment: Alamar Blue cell inhibition assay, A375; format: cell-based; details: drug added 24 hours before Compound K, read-out: IC50 (single agent)
[4] = system: erlotinib-resistant MDA-MB-453 breast carcinoma cells; experiment: cells; details: Homo sapiens, MDA-MB-453, 96 h, read-out: IC50 (single agent)
[5] = system: phosphorylation of Akt at Ser129 and Ser473, PRAS40 at Thr246; details: MDA-MB-453; 10 uM Compound K, 100 uM Erlotinib, 2 uM Lapatinib; 2, 4 and 8 hour
From the text: Whole proteomes were isolated from treated cells and analyzed by Western blot for changes in phosphorylation status of Akt at Ser129 and Ser473 or downstream mediator of Akt activity, PRAS40 at Thr246.

[6] = system: erlotinib-resistant ZR-75-1 breast carcinoma cells; experiment: Alamar Blue cell inhibition assay, ZR-75-1; format: cell-based; details: 4 day assay, read-out: IC50 (single agent)
[7] = system: BT-474 breast carcinoma cells; experiment: Alamar Blue cell inhibition assay, BT-474; format: cell-based; details: read-out: IC50 (single agent)
[8] = system: T47D breast carcinoma cells; experiment: Alamar Blue cell inhibition assay, T47D; format: cell-based; details: read-out: IC50 (single agent)
[9] = system: phosphorylation of AKT at S129, T308, S473, p21 at T145, cleavage of PARP; experiment: Western hybridization analysis in BT-474 (AKT, p21 phosphorylation, PARP cleavage); format: cell-based; details: 5 uM Compound K, 1 uM AKTi VIII, 5:1 combination, 8 hour assay
[10] = system: Hs 578T breast cancer cells; experiment: Alamar Blue cell inhibition assay, Hs 578T; format: cell-based; details: 4 day assay, read-out: IC50 (single agent)
[11] = system: SUM-190PT inflammatory breast carcinoma cells; experiment: cells; details: for pIC50: read-out: IC50 (single agent)
[12] = system: erlotinib-resistant MDA-MB-453 breast carcinoma cells; details: read-out: IC50 (single agent), 4 day assay
[13] = Homo sapiens, MDA-MB-468, 120 h, Compound K added first, drug the next day
[14] = Homo sapiens, MDA-MB-468, 120 h, drug added first, Compound K the next day
[15] = Homo sapiens, A-375, A375, 5 day assay
[16] = Homo sapiens, 96 h, BT-474, 4 day assay
[17] = Homo sapiens, 96 h, T47D, 4 day assay
[18] = Homo sapiens, MIA PaCa-2, read-out: IC50 (single agent)
[19] = Homo sapiens, 72 h, BT-474, 3 day assay
[20] = Compound K added first, drug the next day

- pIC50 ([2]; Homo sapiens, SUM149PT): 5.01
- pIC50 ([3]; Homo sapiens, MIA PaCa-2, 96 h, read-out: IC50 (single agent)): 4.74
SMILES: CO[C@H]1C[C@@H]2CC[C@@H](C)[C@@](O)(O2)C(=O)C(=O)N2CCCC[C@H]2C(=O)O[C@H]([C@H](C)C[C@@H]2CC[C@@H](O)[C@H](OC)C2)CC(=O)[C@H](C)/C=C(\C)[C@@H](O)[C@@H](OC)C(=O)[C@H](C)C[C@H](C)/C=C/C=C/C=C/1C [Rapamycin]

- pIC50 ([2]; Homo sapiens, SUM149PT): 5.66
- pIC50 [4]: < 4.00
- pIC50 ([6]; Homo sapiens, 96 h): < 3.70
- pIC50 [7, 16]: 5.18
- pIC50 [8, 17]: 4.33
SMILES: C#Cc1cccc(Nc2ncnc3cc(OCCOC)c(OCCOC)cc23)c1 [Erlotinib]
- degree of inhibitory effect found with agent combination ([2]; Compound K 0 μM, Erlotinib 10 μM, Erlotinib added 24 h before K, 5 day assay, positive=synergy, negative=antagonism): 0.0%
- phosphorylation of Akt at Ser129 [5]: no effect
- phosphorylation of Akt at Ser473 [5]: below the detectable levels
- phosphorylation of PRAS40 at Thr246 [5]: pronounced decrease

- pIC50 [7, 19]: 5.65
SMILES: O=c1cc(N2CCOCC2)oc2c(-c3ccccc3)cccc12 [LY294002, 2-(4-morpholinyl)-8-phenyl-4H-1-benzopyran-4-one]

- pIC50 [1, 13]: 4.97
- pIC50 ([2]; Homo sapiens, SUM149PT): 5.77
- pIC50 (A375 melanoma cells; [15]): 5.52
- pIC50 ([11]; SUM190PT): 4.91
SMILES: O=c1[nH]cc(F)c(=O)[nH]1 [5-Fluorouracil]
- degree of inhibitory effect found with agent combination ([11]; Compound K 0 μM, 5-Fluorouracil 10 μM, 5-Fluorouracil added 24 h before K, 5 day assay, positive=synergy, negative=antagonism): 0.0% and −0.0%

- pIC50 (A375 melanoma cells; [15]): 8.92
- pIC50 [3, 18]: 10.85
SMILES: CC[C@]1(O)C[C@@H]2CN(CCc3c([nH]c4ccccc34)[C@@](C(=O)OC)(c3cc4c(cc3OC)N(C)[C@H]3[C@@](O)(C(=O)OC)[C@H](OC(C)=O)[C@]5(CC)C=CCN6CC[C@]43[C@@H]65)C2)C1 [Vinblastine]

- pIC50 [7, 19]: 8.00
SMILES: Cn1c(=O)n(-c2ccc(C(C)(C)C#N)cc2)c2c3cc(-c4cnc5ccccc5c4)ccc3ncc21 [BEZ235]

- pIC50 [1, 13]: 8.10
- pIC50 [1, 14]: 8.06
- pIC50 [3, 18]: 6.74
SMILES: Nc1ccn([C@@H]2O[C@H](CO)[C@@H](O)C2(F)F)c(=O)n1 [Gemcitabine]

- pIC50 [8, 17]: 5.45
SMILES: CNC(=O)c1cc(Oc2ccc(NC(=O)Nc3ccc(Cl)c(C(F)(F)F)c3)cc2)ccn1 [Sorafenib]

- pIC50 ([10]; Homo sapiens, 96 h): 8.56
SMILES: Cc1[nH]c2ccccc2c1CCNCc1ccc(/C=C/C(=O)NO)cc1 [Panobinostat]

Continued, compound first:

SMILES: COc1cccc2c1C(=O)c1c(O)c3c(c(O)c1C2=O)C[C@@](O)(C(=O)CO)C[C@@H]3O[C@H]1C[C@H](N)[C@H](O)[C@H](C)O1 [Doxorubicin]
- pIC50 [1, 13]: 7.80
- pIC50 [1, 14]: 7.77

SMILES: Nc1nc(F)nc2c1ncn2[C@@H]1O[C@H](CO)[C@@H](O)[C@@H]1O [Fludarabine]
- pIC50 (A375 melanoma cells; [15]): 8.54

SMILES: CS(=O)(=O)CCNCc1ccc(-c2ccc3ncnc(Nc4ccc(OCc5cccc(F)c5)c(Cl)c4)c3c2)o1 [Lapatinib]
- phosphorylation of Akt at Ser129 [5]: no effect
- phosphorylation of Akt at Ser473 [5]: below the detectable levels
- phosphorylation of PRAS40 at Thr246 [5]: pronounced decrease
- pIC50 [8, 17]: 5.25

SMILES: CCN(CC)CCNC(=O)c1c(C)[nH]c(/C=C2\C(=O)Nc3ccc(F)cc32)c1C [Sunitinib]
- pIC50 (A375 melanoma cells; Homo sapiens, A-375, A375, 4 day assay): 6.84
- pIC50 [3, 18]: 6.38
- pIC50 [8, 17]: 5.21

SMILES: O=c1[nH]c2ccccc2n1C1CCN(Cc2ccc(-c3nc4cc5[nH]cnc5cc4nc3-c3ccccc3)cc2)CC1 [AKTi VIII, 1,3-Dihydro-1-(1-((4-(6-phenyl-1H-imidazo[4,5-g]quinoxalin-7-yl)phenyl)methyl)-4-piperidinyl)-2H-benzimidazol-2-one]
- cleavage of PARP (i.e. induction of apoptosis) [9]: very minor effect
- phosphorylation of AKT at S129 [9]: no effect
- phosphorylation of AKT at T308 and S473 [9]: Dramatically reduced
- phosphorylation of p21 at T145 [9]: Dramatically decreased
- pIC50 [7, 19]: 6.26
- pIC50 [7, 16]: 6.30

SMILES: Oc1cccc(-c2nc(N3CCOCC3)c3oc4ncccc4c3n2)c1 [PI-103, 3-[4-(4-morpholinylpyrido[3′,2′:4,5]furo[3,2-d]pyrimidin-2-yl]phenol hydrochloride]
- pIC50 [7, 19]: 6.39
- pIC50 ([8]; Homo sapiens, T47D, 72 h): 5.27

SMILES: COC[C@H]1OC(=O)c2coc3c2[C@@]1(C)C1=C(C3=O)[C@@H]2CCC(=O)[C@@]2(C)C[C@H]1OC(C)=O [Wortmannin]
- pIC50 [7, 19]: 4.59

SMILES: CO[C@H]1/C=C\C=C(/C)C(=O)NC2=CC(=O)C(NCCN(C)C)=C(C[C@@H](C)C[C@H](OC)[C@H](O)[C@@H](C)/C=C(\C)[C@@H]1OC(N)=O)C2=O [Compound 17-DMAG, 17-Dimethylamino-ethylamino-17-demethoxygeldanamycin]
- pIC50 [10]: 8.20

SMILES: O=C(O)c1ccc2c(c1)nc(Nc1cccc(Cl)c1)c1ccncc12 [Compound K]
- pIC50 [1, 20]: 5.34 and 5.35 and 5.37
- pIC50 ([1]; drug added first, Compound K the next day): 5.36 and 5.37 and 5.35
- pIC50 [10]: 4.75 and 4.78
- pIC50 (A375 melanoma cells; A375, 4 day assay): 5.30 and 5.32 and 5.29
- pIC50 ([3]; read-out: IC50 (single agent), MIA PaCa-2, added simultaneously, 4 day assay): 5.77
- pIC50 ([3]; read-out: IC50 (single agent), MIA PaCa-2, drug added 24 hours before Compound K, 4 day assay): 5.82 and 5.70
- pIC50 ([3]; read-out: IC50 (single agent), MIA PaCa-2, drug added 24 hours before Compound K, 5 day assay): 5.39
- phosphorylation of Akt at Ser129 [5]: significant reduction
- phosphorylation of Akt at Ser473 [5]: affected, but to a lesser degree
- phosphorylation of PRAS40 at Thr246 [5]: significantly less pronounced
- pIC50 [6]: 5.39
- pIC50 [12]: 5.21
- pIC50 ([11]; SUM-190PT, drug added 24 hours before Compound K, 5 day assay): 6.07
- cleavage of PARP (i.e. induction of apoptosis) [9]: very minor effect
- phosphorylation of AKT at S129 [9]: Dramatically reduced
- phosphorylation of AKT at T308 and S473 [9]: moderate effect
- phosphorylation of p21 at T145 [9]: Dramatically decreased
- pIC50 [7]: 5.57 and 5.54
- pIC50 ([8]; T47D, 4 day assay): 5.23
- pIC50 ([8]; T-47D, 3 day assay): 5.47

SMILES: N.N.[Cl][Pt][Cl] [Cisplatin]
- pIC50 [1, 20]: 6.37
- pIC50 ([2]; SUM-149PT, drug added 24 hours before Compound K, 5 day assay): 6.34
